Assay results reported in patent US10189782B2, “Derivatives of indole for the treatment of cancer, viral infections and lung diseases” (BIOKINESIS, priority 2012, dated 2019).
Structures can show the parent of a compound that is named as a salt. Where two headings read alike, the source gives them in different places.

Legend:
[1] = molecular target: T1, Human recombinant MKlp2 motor domain1-519, His tagged (Homo sapiens, UniProt O95235); assay: Microtubule stimulated ATPase activity of the MKlp2 motor domain (Kinesin ELIPA Assay Kit); assay type: biochemical; settings: read-out: MKIp2 IC50
T1 construct: Human recombinant MKlp2 motor domain1-519, His tagged; His; purchased Cytoskeleton MP05
T1 sequence (O95235 1-519): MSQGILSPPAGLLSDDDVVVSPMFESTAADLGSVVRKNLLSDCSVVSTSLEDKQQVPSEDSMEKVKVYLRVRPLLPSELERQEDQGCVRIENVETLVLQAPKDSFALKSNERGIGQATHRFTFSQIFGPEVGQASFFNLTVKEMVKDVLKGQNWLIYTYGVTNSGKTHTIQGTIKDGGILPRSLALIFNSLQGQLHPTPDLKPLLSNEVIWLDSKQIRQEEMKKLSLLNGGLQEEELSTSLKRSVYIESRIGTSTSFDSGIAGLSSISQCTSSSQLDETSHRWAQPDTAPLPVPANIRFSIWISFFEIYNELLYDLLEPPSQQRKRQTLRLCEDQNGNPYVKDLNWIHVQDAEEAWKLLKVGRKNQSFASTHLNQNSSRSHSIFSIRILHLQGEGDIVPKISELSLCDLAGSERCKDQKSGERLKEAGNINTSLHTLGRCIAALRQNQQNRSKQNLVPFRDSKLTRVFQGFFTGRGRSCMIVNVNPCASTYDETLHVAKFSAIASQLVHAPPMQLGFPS
Protocol: Evaluation of Inhibitory Effects on the Microtubule Stimulated ATPase Activity of the MKlp2 Motor Domain.
MKlp2 ATPase activity was measured by monitoring real time free phosphate generation using the Kinesin ELIPA Assay Kit. The assay is based upon an absorbance shift (330 nm-360 nm) that occurs when 2-amino-6-mercapto-7-methylpurine ribonucleoside (MESG) is catalytically converted to 2-amino-6-mercapto-7-methylpurine in the presence of inorganic phosphate (Pi). One molecule of Pi will yield one molecule of 2-amino-6-mercapto-7-methylpurine in an essentially irreversible reaction.
All experiments were performed at 22° C.
Condition 1, compound preparation.
The compounds were dissolved in DMSO at 30× the maximum concentration to be tested. […] DMSO solutions were pipetted directly into each well.
Condition 2, reaction's “motor mix”.
The following were mixed sequentially in the specified order at RT to obtain the “motor mix”.
20 mL: 15 mM Pipes-NaOH pH 7.0, 10 mM MgCl2, 30 μM Tx (Buffer 1).
10 mL: 5× MSEG (ELIPA 1 reagent, Cat. # BK051).
10 mL: 2.5 mg/mL porcine brain microtubules (3×10 mg Cat. # MT002-XL resuspended in 12 mL of Buffer 1).
0.5 mL: 100×PNP (ELIPA 2 reagent, cat. # BK051).
Condition 3, reaction initiation.
The motor mix was pipetted into each well to obtain 80% of total volume. The reaction was initiated by adding a 20% of total volume of 5 mM ATP into each well.
The reactions were measured in a SpectraMax M2 (Molecular Devices) set in kinetic mode and 360 nm absorbance wavelength. The start protocol was 5 second rapid circular mixing, 21 readings, 30 seconds apart.

[2] = test system: K562 cells; assay: Cytotoxicity on human cancer cells (WST-1), K562; assay type: cell-based; settings: WST-1 on D4, read-out: K562 IC50
Protocol: Evaluation of Cytotoxicity Effects on Human Cancer Cells
The effects of the compounds of the invention on the viability of human cancer cells were studied on various human cancer cell lines of differing tissue origins (A549, NCI-H460: lung cancer; MDA-MB-231: breast cancer; HCT-116, HT-29: colon cancer; MIA-PaCa-2: pancreatic cancer; K562: leukaemia). All cell lines were obtained from ATCC or ECACC. Cells were cultured in the culture media described below, under a 37° C., 5% CO2 humidified atmosphere, according to a standard operating procedure.
On D0, the cells were plated in 90 μl in 96 wells plates at densities ranging from 500 to 5,000 cells per well.
Following addition of the test substance the cells were protected from light. The solvents (DMSO and specific control solvent were added at the maximal concentration: 10 μl/well (3 wells/condition)).
On D4, the Cell Proliferation Reagent WST-1 was added to each well (10 μl/well), according to a standard operating procedure. The cells were then incubated for 30 min to 4 h at 37° C.-5% CO2. After these incubations, the 96-well plates were shaken thoroughly for 1 min with Multiskan® EX apparatus (Thermo Labsystems, France). The absorbence was measured at 450 nm, the reference wavelength being 620 nm. The analysis of the results was performed with the Ascent software 2.6 (Thermo Labsystems, France), Microsoft Excel 2003 and GraphPad Prism 4.03 softwares to give the concentration of the compounds that induces the death of 50% of the cells (IC50).

[3] = test system: human colon carcinoma HCT-116 xenografts; assay: Anti-tumor activity in nude mice bearing subcutaneous human colon carcinoma HCT-116 xenografts; assay type: in vivo; settings: i.p.
Protocol: The effects of one compound of the invention were studied on the tumor growth of human cancer cells in nude mice. […] The induction in nude mice was realized by subcutaneous injection in the right flank of each mouse of 10×10^6 HCT-116 cells in 200 μl serum-free medium. When the tumor volume reached 130 mm^3, mice were randomized in to 3 groups (10 mice/group).
Mice of group 2 were treated by intraperitoneal injection of cisplatin (diluted in NaCl 0.9%) at 4 mg/kg according to the treatment schedule 1Q3Dx3.
The body weight and tumor volume of mice were recorded twice a week until the end of the experiment.

[4] = Table 6 (prodrugs, formula II), K562 cells
[5] = HCT-116 xenograft nude mice, Cisplatin 4 mg/kg, Cpd 38 37.5 mg/kg, starting MBW 21 g

SMILES | IC50 ([1]; Table 6 (prodrugs, formula II)) | IC50 [2, 4] | IC50 ([1]; Table 3, 22° C.) | IC50 ([2]; Table 4, K562 leukaemia cells) | other results
COc1ccc(C#N)cc1/C=C(\C#N)c1cn(C(=O)OC(C)(C)C)c2ccc(Br)cc12 [Example 64, (Z)-tert-butyl 5-bromo-3-(1-cyano-2-(5-cyano-2-methoxyphenyl)vinyl)-1H-indole-1-carboxylate] | 19600 nM | 240 nM |  |  | 
COc1cc[n+]([O-])cc1/C=C(\C#N)c1c[nH]c2ccc(Cl)cc12 [Example 49, (Z)-3-(2-(5-chloro-1H-indol-3-yl)-2-cyanovinyl)-4-methoxypyridine 1-oxide] |  |  | 560 nM | 9230 nM | 
COc1ccncc1/C=C(\C#N)c1cn(C(C)=O)c2ccc(Br)cc12 [Example 55, (Z)-2-(1-acetyl-5-bromo-1H-indol-3-yl)-3-(4-methoxypyridin-3-yl)acrylonitrile] | 13700 nM | 550 nM |  |  | 
CCN(CC)c1ccncc1/C=C(\C#N)c1c[nH]c2ccc(Br)cc12 [Example 24, (Z)-2-(5-bromo-1H-indol-3-yl)-3-(4-(diethylamino)pyridin-3-yl)acrylonitrile] |  |  | 1100 nM | 3100 nM | 
N#C/C(=C\c1c[n+]([O-])ccc1-c1ccoc1)c1c[nH]c2ccc(Br)cc12 [Example 48, (Z)-3-(2-(5-bromo-1H-indol-3-yl)-2-cyanovinyl)-4-(furan-3-yl)pyridine-1-oxide] |  |  | 730 nM | 6710 nM | 
COc1ccc(C#N)cc1/C=C(\C#N)c1cn(C(=O)CN2CCN(C)CC2)c2ccc(Br)cc12 [Example 68, (Z)-3-(2-(5-bromo-1-(2-(4-methylpiperazin-1-yl)acetyl)-1H-indol-3-yl)-2-cyanovinyl)-4-methoxybenzonitrile] | > 50000 nM | 30 nM |  |  | 
COc1ccc(C#N)cc1/C=C(\C#N)c1cn(C(=O)CC(NC(=O)OC(C)(C)C)C(=O)OCc2ccccc2)c2ccc(Br)cc12 (stereo in doubt) [Example 65, (R,Z)-benzyl-4-(5-bromo-3-(1-cyano-2-(5-cyano-2-methoxyphenyl)vinyl)-1H-indol-1-yl)-2-(tert-butoxycarbonylamino)-4-oxobutanoate] | 10100 nM | 40 nM |  |  | 
COc1ccc(C#N)cc1/C=C(\C#N)c1cn(C(=O)CN)c2ccc(Br)cc12 [Example 71, (Z)-3-(2-(1-(2-aminoacetyl)-5-bromo-1H-indol-3-yl)-2-cyanovinyl)-4-methoxybenzonitrile hydrochloride] | 1900 nM | 10 nM |  |  | 
CSc1ccncc1/C=C(\C#N)c1c[nH]c2ccc(Br)cc12 [Example 15, (Z)-2-(5-bromo-1H-indol-3-yl)-3-(4-(methylthio)pyridin-3-yl)acrylonitrile] |  |  | 200 nM | 2900 nM | 
COc1ccc(C#N)cc1/C=C(\C#N)c1cn(C(=O)CCOP(=O)(O)O)c2ccc(Br)cc12 [Example 79, (Z)-3-(5-bromo-3-(1-cyano-2-(5-cyano-2-methoxyphenyl)vinyl)-1H-indol-1-yl)-3-oxopropyl dihydrogen phosphate] | > 50000 nM | 400 nM |  |  | 
COCCOCCOCC(=O)n1cc(/C(C#N)=C/c2cc(C#N)ccc2OC)c2cc(Br)ccc21 [Example 73, (Z)-3-(2-(5-bromo-1-(2-(2-(2-methoxyethoxy)ethoxy)acetyl)-1H-indol-3-yl)-2-cyanovinyl)-4-methoxybenzonitrile] | > 50000 nM | 30 nM |  |  | 
COc1ccncc1/C=C(\C#N)c1cn(C(=O)C(C)(C)C)c2ccc(Br)cc12 [Example 57, (Z)-2-(5-bromo-1-pivaloyl-1H-indol-3-yl)-3-(4-methoxypyridin-3-yl)acrylonitrile] | 20000 nM | 200 nM |  |  | 
N.N.[Cl][Pt][Cl] [Cisplatin, cisplatin, reference compound] |  |  |  |  | Antitumor activity (tumor volume, FIG. 3) ([3]; HCT-116 xenograft bearing nude mice, cisplatin 4 mg/kg, compound 38 37.5 mg/kg): Antitumor activity was observed; MBWC D 0-D 4 (mean body weight change) [3, 5]: -1.1 g; MBWC D 0-D 7 (mean body weight change) [3, 5]: -2.54 g; MBWC D 0-D 10 (mean body weight change) [3, 5]: -3.33 g; MBWC D 0-D 14 (mean body weight change) [3, 5]: -2.22 g; MBWC D 0-D 17 (mean body weight change) [3, 5]: -1.26 g; MBWC D 0-D 21 (mean body weight change) [3, 5]: -0.38 g; MBWC D 0-D 24 (mean body weight change) [3, 5]: -0.02 g; MBWC D 0-D 28 (mean body weight change) [3, 5]: -0.1 g
COc1ccc(C#N)cc1/C=C(\C#N)c1cn(C(=O)[C@@H](N)CO)c2ccc(Br)cc12 [Example 74, (S,Z)-3-(2-(1-(2-amino-3-hydroxypropanoyl)-5-bromo-1H-indol-3-yl)-2-cyanovinyl)-4-methoxybenzonitrile hydrochloride] | 2100 nM | 10 nM |  |  | 
N#C/C(=C/c1cnccc1-c1ccoc1)c1c[nH]c2ccc(Br)cc12 [Example 34b, (E)-2-(5-bromo-1H-indol-3-yl)-3-(4-(furan-3-yl)pyridin-3-yl)acrylonitrile] |  |  | 960 nM | 14300 nM | 
CN(C)c1ccncc1/C=C(\C#N)c1c[nH]c2ccc(Br)cc12 [Example 8, (Z)-2-(5-bromo-1H-indol-3-yl)-3-(4-(dimethylamino)pyridin-3-yl)acrylonitrile] |  |  | 900 nM | 7500 nM | 
N#C/C(=C\c1cnccc1Cl)c1c[nH]c2ccc(Cl)cc12 [Example 3, (Z)-2-(5-chloro-1H-indol-3-yl)-3-(4-chloropyridin-3-yl)acrylonitrile] |  |  | 800 nM | 3600 nM | 
COc1ccc(C#N)cc1/C=C(\C#N)c1cn(C(C)=O)c2ccc(Br)cc12 [Example 56, (Z)-3-(2-(1-acetyl-5-bromo-1H-indol-3-yl)-2-cyanovinyl)-4-methoxybenzonitrile] | 16700 nM | 250 nM |  |  | 
N#C/C(=C\c1cnccc1Cl)c1c[nH]c2ccc(Br)cc12 [Example 4, (Z)-2-(5-bromo-1H-indol-3-yl)-3-(4-chloropyridin-3-yl)acrylonitrile] |  |  | 700 nM | 1400 nM | 
COc1ccc(C#N)cc1/C=C(\C#N)c1cn(C(=O)CCC(NC(=O)OC(C)(C)C)C(=O)OC(C)(C)C)c2ccc(Br)cc12 (stereo in doubt) [Example 66, (R,Z)-tert-butyl-5-(5-bromo-3-(1-cyano-2-(5-cyano-2-methoxyphenyl)vinyl)-1H-indol-1-yl)-2-(tert-butoxycarbonylamino)-5-oxopentanoate] | 5400 nM | 30 nM |  |  | 
